Here are results for ten molecules from patent US20240408216A1, “PROTEIN INHIBITOR OR DEGRADING AGENT, PHARMACEUTICAL COMPOSITION CONTAINING SAME AND PHARMACEUTICAL USE” (JING MEDICINE TECHNOLOGY (SHANGHAI) LTD., priority 2021, published 2024).

Assay [1] deals with BaF3 (EGFR WT). The experiment in a line: Cell proliferation IC50 assay (Cell Titer GLO), BaF3 WT cells. The assay is classed as cell-based. Conditions: Mus musculus, Ba/F3 EGFR, Table 6, 10 ng/ml EGF, 72 h. In outline: (§1)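 Growth inhibition is measured over 72 h of continuous compound treatment in cells seeded at 2000-4000 per well.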
The target in assay [2] is T1, BaF3 (EGFR Del19/C797S) (Homo sapiens, UniProt P00533, C797S, cells depend on it, form not given).
T1 construct: BaF3 (EGFR Del19/C797S)|DC|RPMI1640 + 10% FBS
T1 sequence (P00533 with tags, fused parts or gaps DEL746-750/C797S, form open): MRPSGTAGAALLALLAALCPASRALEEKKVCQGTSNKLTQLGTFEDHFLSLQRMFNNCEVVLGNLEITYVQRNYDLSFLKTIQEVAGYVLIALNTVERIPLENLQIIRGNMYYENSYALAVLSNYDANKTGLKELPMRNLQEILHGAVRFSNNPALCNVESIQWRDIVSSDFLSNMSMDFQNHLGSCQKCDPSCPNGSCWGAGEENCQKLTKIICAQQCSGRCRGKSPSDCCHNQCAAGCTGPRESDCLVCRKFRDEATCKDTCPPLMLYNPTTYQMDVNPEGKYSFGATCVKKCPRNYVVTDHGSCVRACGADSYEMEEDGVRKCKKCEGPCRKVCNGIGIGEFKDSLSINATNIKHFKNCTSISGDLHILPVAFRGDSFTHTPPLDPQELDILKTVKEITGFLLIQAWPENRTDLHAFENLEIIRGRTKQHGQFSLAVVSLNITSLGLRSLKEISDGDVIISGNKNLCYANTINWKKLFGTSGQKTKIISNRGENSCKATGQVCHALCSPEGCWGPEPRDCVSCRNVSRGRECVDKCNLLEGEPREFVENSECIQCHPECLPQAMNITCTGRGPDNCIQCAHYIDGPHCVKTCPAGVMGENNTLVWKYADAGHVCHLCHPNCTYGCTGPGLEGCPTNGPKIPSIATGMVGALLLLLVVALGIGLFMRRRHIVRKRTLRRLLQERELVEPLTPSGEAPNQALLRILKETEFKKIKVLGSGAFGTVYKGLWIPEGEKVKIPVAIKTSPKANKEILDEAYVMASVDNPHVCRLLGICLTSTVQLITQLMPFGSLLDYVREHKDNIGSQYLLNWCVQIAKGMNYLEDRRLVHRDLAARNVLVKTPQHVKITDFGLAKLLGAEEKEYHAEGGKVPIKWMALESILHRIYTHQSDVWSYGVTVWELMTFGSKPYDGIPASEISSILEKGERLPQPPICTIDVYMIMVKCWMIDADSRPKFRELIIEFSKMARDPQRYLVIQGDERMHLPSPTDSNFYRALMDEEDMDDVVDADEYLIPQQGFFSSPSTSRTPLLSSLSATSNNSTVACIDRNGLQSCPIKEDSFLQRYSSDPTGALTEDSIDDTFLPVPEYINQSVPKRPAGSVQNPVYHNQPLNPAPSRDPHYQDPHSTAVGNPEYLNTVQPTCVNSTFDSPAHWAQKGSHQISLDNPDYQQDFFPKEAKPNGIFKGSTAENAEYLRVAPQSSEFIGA
The experiment in a line: Cell proliferation IC50 assay (Cell Titer GLO), BaF3 DC cells. In kind it is cell-based, mouse. Conditions: Table 6, 72 h. Summed up:
as §1
(ATP-based viability assays read luminescence as a measure of living cells.)

For assay [3], the system named is A431. Description: Cell proliferation IC50 assay (Cell Titer GLO), A431 cells. The assay is classed as cell-based. Conditions: Homo sapiens, A-431; Table 6; A431, 72 h; read-out: A431 IC50. In outline:
as §1

For assay [4], the system named is BaF3 (EGFR Del19/T790M/C797S). Description: Cell proliferation IC50 assay (Cell Titer GLO), BaF3 DTC cells. In kind it is cell-based. The note with it: Mus musculus, Ba/F3 EGFR-Del19/T790M/C797S, Table 6, 72 h. The method, then: IC50 of compounds in the present invention was determined by Cell Titer GLO reagent from Promega. The procedures are as follows:
Tumor cells were cultured in specified medium in an incubator at 37° C. and 5% CO2. The cells were passaged periodically. Cells at the logarithmic growth phase were collected for plating at a density of 2000-4000 cells/well. The next day, the compounds of the present invention were serially diluted and added to the cells, with DMSO being the negative control and the culture media without cells being the blank control. The plate was incubated in the incubator for 72 h. The cell viability assay was performed by adding the detection reagents to the cell culture media according to Cell Titer GLO reagent instructions and detecting luminescent signals on an EnVision microplate reader (PerkinElmer).
Inhibition of cell growth by the compounds of the present invention was plotted by Prism Graphpad software for statistically calculating the IC50 of the compound of the present invention.

The test system of assay [5] is BaF3 (EGFR L858R/T790M/C797S). Description: Cell proliferation IC50 assay (Cell Titer GLO), BaF3 LTC cells. In kind it is cell-based. Conditions: Mus musculus, Ba/F3 EGFR, Table 6, 72 h. Summed up: as §1

A word on the IC50: it is the concentration that inhibits the measured activity by half. As to `CCc1cc(Nc2ncc(Cl)c(Nc3ccccc3P(C)(C)=O)n2)c(OC)cc1N1CCC(N2CCN(CCOCCc3cccc4c3CN(C3CCC(=O)NC3=O)C4=O)CC2)CC1` (centres unmarked) [Example E109], the IC50 was over 4000 nM in assay [1]; 6.5 nM in assay [2]; 1140 nM in assay [3]; 10.5 nM in assay [4]; 83.3 nM in assay [5].
Consider `CCc1cc(Nc2ncc(Cl)c(Nc3ccccc3P(C)(C)=O)n2)c(OC(F)(F)F)cc1N1CCC(N2CCN(CCOc3cccc4c3CN(C3CCC(=O)NC3=O)C4=O)CC2)CC1` (centres unmarked) [Example E152], for which the half-maximal inhibitory concentration (IC50) in assay [1] is over 4000 nM; in assay [2] it was 16.2 nM; in assay [3], 1470 nM; in assay [4] it was 7.63 nM; in assay [5], 227 nM.
On to `CCc1cc(Nc2ncc(Cl)c(Nc3ccccc3P(C)(C)=O)n2)c(OC)cc1N1CCC(N2CCN(C3(CC#Cc4cccc5c4CN(C4CCC(=O)NC4=O)C5=O)CC3)CC2)CC1` (centres unmarked) [Example E57], for which the half-inhibitory concentration (IC50) in assay [1] was over 4000 nM; in assay [2], 22.1 nM; in assay [3], over 4000 nM; in assay [4], 72.5 nM; in assay [5], 456 nM.
On to `COc1cc(N2CCC(N3CCN(CCCCOc4cccc5c4CN(C4CCC(=O)NC4=O)C5=O)CC3)CC2)c(-c2cnn(C)c2)cc1Nc1ncc(Cl)c(Nc2ccccc2P(C)(C)=O)n1` (centres unmarked) [Example E146], for which the IC50 in assay [1] was 188 nM; in assay [2], 5.6 nM; in assay [3] it was 908 nM; in assay [4], 15.7 nM; in assay [5], 55.8 nM.
As to `CCc1cc(Nc2ncc(Cl)c(Nc3ccccc3P(C)(C)=O)n2)cc(OC)c1N1CCC(N2CCN(CCC#Cc3cccc4c3CN(C3CCC(=O)NC3=O)C4=O)CC2)CC1` (centres unmarked) [Example E93], the IC50 in assay [1] was 75.4 nM; in assay [2], 15 nM; in assay [3], 827 nM; in assay [4], 9.74 nM; in assay [5], 68.6 nM.
As to `CCc1cc(Nc2ncc(-c3cn[nH]c3)c(Nc3ccccc3P(C)(C)=O)n2)c(OC)cc1N1CCC(N2CCN(CCOc3cccc4c3CN(C3CCC(=O)NC3=O)C4=O)CC2)CC1` (centres unmarked) [Example E167], the IC50 was 975 nM in assay [1]; 1.5 nM in assay [2]; 1100 nM in assay [3]; 37.8 nM in assay [4]; 3050 nM in assay [5].
The matching figures for `COc1cc(N2CCC(N3CCC4(CCC(=Cc5cccc6c5CN(C5CCC(=O)NC5=O)C6=O)CC4)C3)CC2)c(C2CC2)cc1Nc1ncc(Cl)c(Nc2ccccc2P(C)(C)=O)n1` (centres unmarked) [Example E36]: 541 nM, 3.1 nM, 1130 nM, 9.49 nM and 24.7 nM.
On to `CCc1cc(Nc2nc(Nc3ccccc3P(C)(C)=O)c3cc[nH]c3n2)c(OC)cc1N1CCC(N2CCN(CCOc3cccc4c3CN(C3CCC(=O)NC3=O)C4=O)CC2)CC1` (centres unmarked) [Example E126], for which the IC50 in assay [1] is over 4000 nM; in assay [2], 44 nM; in assay [3], over 4000 nM; in assay [4], 18.9 nM; in assay [5] it was 72.3 nM.
`CCc1cc(Nc2ncc(Cl)c(Nc3ccccc3P(C)(C)=O)n2)c(OC)cc1N1CCC(N2CCN(CCCCCc3ccc4c(N5CCC(=O)NC5=O)nn(C)c4c3)CC2)CC1` [Example E65]: the concentration for half-maximal inhibition (IC50) in assay [1] is 1730 nM; in assay [2], 15.8 nM; in assay [3] it was 1060 nM; in assay [4], 35.3 nM; in assay [5] it was 267 nM.
For `[2H]C([2H])([2H])C([2H])([2H])c1cc(Nc2ncc(Cl)c(Nc3ccccc3P(C)(C)=O)n2)c(OC)cc1N1CCC(N2CCN(CCOc3ccc4c(c3)CN(C3CCC(=O)NC3=O)C4=O)CC2)CC1` (centres unmarked) [Example E221], the IC50 in assay [1] was 1750 nM; in assay [2] it was 6.4 nM; in assay [3] it was over 4000 nM; in assay [4] it was 12.1 nM; in assay [5], 22.5 nM.
